# According to PubChem BioAssay AID1259407 (Chemical Carcinogenesis Research Information System (CCRIS), 2018):
# The source made the active and inactive calls. How the calls were made is not given here.
# System: CCRIS mutagenicity, Ames/micronucleus/aberration tests
# Test: CCRIS mutagenicity studies
# [1] = Test System: AMES SALMONELLA TYPHIMURIUM, Strain/Indicator: TA100, Metabolic Activation: RAT, LIVER, S-9, AROCLOR 1254, Method: PREINCUBATION
# [2] = Test System: AMES SALMONELLA TYPHIMURIUM, Strain/Indicator: TA98, Metabolic Activation: NONE, Method: STANDARD PLATE
# [3] = Test System: AMES SALMONELLA TYPHIMURIUM, Strain/Indicator: TA100, Metabolic Activation: NONE, Method: STANDARD PLATE
# [4] = Test System: AMES SALMONELLA TYPHIMURIUM, Strain/Indicator: TA1535, Metabolic Activation: NONE, Method: STANDARD PLATE
# [5] = Test System: AMES SALMONELLA TYPHIMURIUM, Strain/Indicator: TA1537, Metabolic Activation: NONE, Method: STANDARD PLATE
# [6] = Test System: AMES SALMONELLA TYPHIMURIUM, Strain/Indicator: TA1538, Metabolic Activation: NONE, Method: STANDARD PLATE
structure (smiles),measurement,setting,value
CN(N=O)c1ccccc1,mutagenic call,"Test System: AMES SALMONELLA TYPHIMURIUM, Strain/Indicator: HISG428, Metabolic Activation: RAT, LIVER, S-9, AROCLOR 1254, Method: PREINCUBATION",inactive; negative
same,mutagenic call,[1],active; positive
same,mutagenic call,"Test System: AMES SALMONELLA TYPHIMURIUM, Strain/Indicator: TA104, Metabolic Activation: RAT, LIVER, S-9, AROCLOR 1254, Method: PREINCUBATION",active; positive
same,mutagenic call,"Test System: AMES SALMONELLA TYPHIMURIUM, Strain/Indicator: TA1537, Metabolic Activation: RAT, LIVER, S-9, PHENOBARBITAL, Method: STANDARD PLATE",inactive; negative
same,mutagenic call,"Test System: AMES SALMONELLA TYPHIMURIUM, Strain/Indicator: TA1537, Metabolic Activation: RAT, LIVER, S-9, PYRAZOLE, Method: STANDARD PLATE",active; positive
same,mutagenic call,"Test System: AMES SALMONELLA TYPHIMURIUM, Strain/Indicator: TA1537, Metabolic Activation: RAT, LIVER, S-9, Method: LIQUID INCUBATION",active; positive
same,mutagenic call,"Test System: AMES SALMONELLA TYPHIMURIUM, Strain/Indicator: TA2638, Metabolic Activation: RAT, LIVER, S-9, AROCLOR 1254, Method: PREINCUBATION",active; positive
same,mutagenic call,"Test System: AMES SALMONELLA TYPHIMURIUM, Strain/Indicator: TA2659, Metabolic Activation: RAT, LIVER, S-9, AROCLOR 1254, Method: PREINCUBATION",inactive; negative
same,mutagenic call,"Test System: AMES SALMONELLA TYPHIMURIUM, Strain/Indicator: YG7108-2A6-OR, Metabolic Activation: NONE, Method: PREINCUBATION",active; positive
same,mutagenic call,"Test System: AMES SALMONELLA TYPHIMURIUM, Strain/Indicator: YG7108-2A6, Metabolic Activation: NONE, Method: PREINCUBATION",active; positive
same,mutagenic call,"Test System: AMES SALMONELLA TYPHIMURIUM, Strain/Indicator: YG7108-PCW, Metabolic Activation: NONE, Method: PREINCUBATION",inactive; negative
same,mutagenic call,"Test System: AMES SALMONELLA TYPHIMURIUM, Strain/Indicator: YG7108, Metabolic Activation: RAT LIVER S-9, PHENOBARBITAL AND 5,6-BENZOFLAVONE, Method: PREINCUBATION",inactive; negative
C1CCNCC1,mutagenic call,"Test System: MOUSE LYMPHOMA, Strain/Indicator: L5178Y (TK+/TK-), Metabolic Activation: NONE, Method: SUSPENSION/PLATE",active; positive
same,mutagenic call,"Test System: MOUSE LYMPHOMA, Strain/Indicator: L5178Y (TK+/TK-), Metabolic Activation: RAT, LIVER, S-9, AROCLOR 1254, Method: SUSPENSION/PLATE",inactive; negative
CN(C)CCCNc1c2ccccc2nc2ccccc12,mutagenic call,"Test System: AMES SALMONELLA TYPHIMURIUM, Strain/Indicator: TA98(1,8-DNP6), Metabolic Activation: NONE, Method: STANDARD PLATE",inactive; negative
same,mutagenic call,"Test System: AMES SALMONELLA TYPHIMURIUM, Strain/Indicator: TA98(1,8-DNP6), Metabolic Activation: RAT, LIVER, S-9, Method: STANDARD PLATE",inactive; negative
same,mutagenic call,"Test System: AMES SALMONELLA TYPHIMURIUM, Strain/Indicator: TA98(NR), Metabolic Activation: NONE, Method: STANDARD PLATE",inactive; negative
same,mutagenic call,"Test System: AMES SALMONELLA TYPHIMURIUM, Strain/Indicator: TA98(NR), Metabolic Activation: RAT, LIVER, S-9, Method: STANDARD PLATE",active; positive
same,mutagenic call,[2],inactive; negative
same,mutagenic call,"Test System: AMES SALMONELLA TYPHIMURIUM, Strain/Indicator: TA98, Metabolic Activation: RAT, LIVER, S-9, Method: STANDARD PLATE",inactive; negative
same,mutagenic call,[3],inactive; negative
same,mutagenic call,[4],inactive; negative
same,mutagenic call,[5],active; positive
same,mutagenic call,"Test System: AMES SALMONELLA TYPHIMURIUM, Strain/Indicator: TA1537 PKM101, Metabolic Activation: NONE, Method: STANDARD PLATE",active; positive
same,mutagenic call,[6],active; positive
same,mutagenic call,"Test System: CHINESE HAMSTER V-79, Strain/Indicator: V-79/6-THIOGUANINE, Metabolic Activation: NONE, Method: STANDARD PLATE",inactive; negative
same,mutagenic call,"Test System: CHINESE HAMSTER V-79, Strain/Indicator: V-79/OUABAIN, Metabolic Activation: NONE, Method: STANDARD PLATE",inactive; negative
same,mutagenic call,"Test System: Escherichia coli, Strain/Indicator: CC107 (G6 to G7 frameshifts), Metabolic Activation: None, Method: Modified preincubation",active; positive
same,mutagenic call,"Test System: Escherichia coli, Strain/Indicator: CC108 (G6 to G5 frameshifts), Metabolic Activation: None, Method: Modified preincubation",active; positive
same,mutagenic call,"Test System: Escherichia coli, Strain/Indicator: CC109 (CG5 to CG4 frameshifts), Metabolic Activation: None, Method: Modified preincubation",active; positive
same,mutagenic call,"Test System: Escherichia coli, Strain/Indicator: CC111 (A7 to A6 frameshifts), Metabolic Activation: None, Method: Modified preincubation",active; positive
CN(N)c1ccn([C@@H]2O[C@H](CO)[C@@H](O)[C@H]2O)c(=O)n1,mutagenic call,"Test System: CHINESE HAMSTER V-79, Strain/Indicator: V-79/6-THIOGUANINE, Metabolic Activation: NONE, Method: REPLATING",inactive; negative
CCCCCCCCCCCCCCCC(=O)OC/C=C(C)/C=C/C=C(C)/C=C/C1=C(C)CCCC1(C)C,mutagenic call,"End Point: IN VIVO CHROMOSOMAL ABERRATIONS, Test System: BONE MARROW CELLS, Species: RAT, Strain/Sex: WISTAR/MALE, FEMALE, Route: ORAL (GAVAGE)",active; positive (structural changes; abnormal metaphase)
same,mutagenic call,"End Point: IN VIVO CHROMOSOMAL ABERRATIONS, Test System: BONE MARROW, Species: RAT, Strain/Sex: WISTAR/MALE, FEMALE, Route: GAVAGE",active; positive (structural changes)
same,mutagenic call,"End Point: IN VIVO MICRONUCLEUS, Test System: BONE MARROW POLYCHROMATIC ERYTHROCYTES, Species: MOUSE, Strain/Sex: DDY/MALE, Route: IP",inactive; negative
same,mutagenic call,[2],inactive; negative
same,mutagenic call,"Test System: AMES SALMONELLA TYPHIMURIUM, Strain/Indicator: TA98, Metabolic Activation: RAT, LIVER, S-9, AROCLOR 1254, Method: STANDARD PLATE",inactive; negative
same,mutagenic call,[3],inactive; negative
same,mutagenic call,"Test System: AMES SALMONELLA TYPHIMURIUM, Strain/Indicator: TA100, Metabolic Activation: RAT, LIVER, S-9, AROCLOR 1254, Method: STANDARD PLATE",inactive; negative
same,mutagenic call,[4],inactive; negative
same,mutagenic call,"Test System: AMES SALMONELLA TYPHIMURIUM, Strain/Indicator: TA1535, Metabolic Activation: RAT, LIVER, S-9, AROCLOR 1254, Method: STANDARD PLATE",inactive; negative
same,mutagenic call,[5],inactive; negative
same,mutagenic call,"Test System: AMES SALMONELLA TYPHIMURIUM, Strain/Indicator: TA1537, Metabolic Activation: RAT, LIVER, S-9, AROCLOR 1254, Method: STANDARD PLATE",inactive; negative
same,mutagenic call,[6],inactive; negative
same,mutagenic call,"Test System: AMES SALMONELLA TYPHIMURIUM, Strain/Indicator: TA1538, Metabolic Activation: RAT, LIVER, S-9, AROCLOR 1254, Method: STANDARD PLATE",inactive; negative
same,mutagenic call,"Test System: E. COLI, Strain/Indicator: WP2, Metabolic Activation: NONE, Method: STANDARD PLATE",inactive; negative
same,mutagenic call,"Test System: E. COLI, Strain/Indicator: WP2, Metabolic Activation: RAT, LIVER, S-9, AROCLOR 1254, Method: STANDARD PLATE",inactive; negative
CC(=O)Nc1ccc(Oc2ccc(N(OC(C)=O)C(C)=O)cc2)cc1,mutagenic call,"Test System: AMES SALMONELLA TYPHIMURIUM, Strain/Indicator: TA98(1,8-DNP6), Metabolic Activation: NONE, Method: PREINCUBATION",active; positive
same,mutagenic call,"Test System: AMES SALMONELLA TYPHIMURIUM, Strain/Indicator: TA98(1,8-DNP6), Metabolic Activation: RAT, LIVER, S-9, AROCLOR 1254, Method: PREINCUBATION",active; positive
same,mutagenic call,"Test System: AMES SALMONELLA TYPHIMURIUM, Strain/Indicator: TA98(NR), Metabolic Activation: NONE, Method: PREINCUBATION",active; positive
same,mutagenic call,"Test System: AMES SALMONELLA TYPHIMURIUM, Strain/Indicator: TA98(NR), Metabolic Activation: RAT, LIVER, S-9, AROCLOR 1254, Method: PREINCUBATION",active; positive
same,mutagenic call,"Test System: AMES SALMONELLA TYPHIMURIUM, Strain/Indicator: TA98, Metabolic Activation: NONE, Method: PREINCUBATION",active; positive
same,mutagenic call,"Test System: AMES SALMONELLA TYPHIMURIUM, Strain/Indicator: TA98, Metabolic Activation: RAT, LIVER, S-9, AROCLOR 1254, Method: PREINCUBATION",active; positive
same,mutagenic call,"Test System: AMES SALMONELLA TYPHIMURIUM, Strain/Indicator: TA100(NR), Metabolic Activation: NONE, Method: PREINCUBATION",active; positive
same,mutagenic call,"Test System: AMES SALMONELLA TYPHIMURIUM, Strain/Indicator: TA100(NR), Metabolic Activation: RAT, LIVER, S-9, AROCLOR 1254, Method: PREINCUBATION",active; positive
same,mutagenic call,"Test System: AMES SALMONELLA TYPHIMURIUM, Strain/Indicator: TA100, Metabolic Activation: NONE, Method: PREINCUBATION",active; positive
same,mutagenic call,[1],active; positive
